Assay results published in patent US7312306B2, “Substituted heterocyclic acyl-tripeptides useful as thrombin receptor modulators” (Ortho-McNeil Pharmaceutical, Inc., priority 1998, dated 2007).
Read-outs that look alike come from different tables or passages of the source. Starred links: 1 amine or outer side, 2 acyl side, 3 side chain; linkers in the order of their positions; H or OH if unused. Non-standard residues stand in square brackets, D forms with d. Residues, ends and D or L forms follow the SMILES beside them. ξ: configuration not given here. Triazole(1,2,4-3-CO,5-NH) = O=C(c1n[nH]c(N[*:1])n1)[*:2]; Phe(4-F) = N[CH](Cc1ccc(F)cc1)C(=O)O; ξNip = O=C(C1CCCN([*:1])C1)[*:2]; Cha = N[CH](CC1CCCCC1)C(=O)O

Legend:
[1] = system: gel-filtered platelets aggregation induced by thrombin; test: Inhibition of thrombin-induced gel-filtered platelet aggregation assay; format: cell-based; settings: Homo sapiens
Protocol: (§1) In Vitro Agonist Platelet Aggregation Assay/Inhibition of Thrombin-induced Gel-filtered Platelet Aggregation Assay
(§2) The percentage of platelet aggregation is calculated as an increase in light transmission of compound-treated platelet concentrate vs. control-treated platelet concentrate. Human blood is obtained from drug free, normal donors into tubes containing 0.13 M sodium citrate. Platelet rich plasma (PRP) is collected by centrifugation of whole blood at 200×g for 10 min at 25° C. The PRP (5 mL) is gel filtered through Sepharose 2B (bed volume 50 mL), and the platelet count is adjusted to 2×10^7 platelets per sample. The following constituents are added to a siliconized cuvette: concentrated platelet filtrate and Tyrode's buffer (0.14 M NaCl, 0.0027 M KCl, 0.012 M NaHCO3, 0.76 mM Na2HPO4, 0.0055 M glucose, 2 mg/mL BSA and 5.0 mM HEPES @ pH 7.4) in an amount equal to 350 l, 50 l of 20 mM calcium and 50 l of the test compound. Aggregation is monitored in a BIODATA aggregometer for the 3 min following the addition of agonist (thrombin 50 l of 1 unit/mL).

[2] = system: platelet aggregation; test: In vitro agonist platelet aggregation assay (gel-filtered platelets); format: cell-based, Human
Protocol: as §1, §2

[3] = Homo sapiens, read-out: EC50 (M), EC50 values for platelet aggregation
[4] = gel-filtered platelets aggregation induced by thrombin, Table 2, read-out: IC50 (M), inhibition of platelet aggregation
[5] = agonist activity, human gel-filtered platelets, Table 1, read-out: EC50 (M), EC50 values for platelet aggregation

Compound | IC50 [1, 4] [M] | EC50 [2, 5] [M] | further results
N=C(N)NCCCC(NC(=O)C(CC1CCCCC1)NC(=O)c1n[nH]c(NC(=O)C=Cc2ccc(F)cc2)n1)C(=O)NC(Cc1ccccc1)C(N)=O (centres unmarked) [Compound 26] |  |  | IC50 ([1]; read-out: IC50 (M), inhibition of platelet aggregation): 1.3e-05 M; EC50 [2, 3]: 7.9e-06 M
N=C(N)NCCCC(NC(=O)C(CC1CCCCC1)NC(=O)c1n[nH]c(NC(=O)C(=Cc2ccccc2)c2ccccc2)n1)C(=O)NC(Cc1ccccc1)C(N)=O (centres unmarked) [Compound 34] | 1.9e-05 |  | 
N=C(N)NCCC[C@H](NC(=O)[C@H](CC1CCCCC1)NC(=O)c1cc2ccccc2s1)C(=O)N[C@@H](Cc1ccccc1)C(N)=O [Compound 37] | 2.1e-05 |  | 
Cc1c(S(=O)(=O)N[C@@H](CC2CCCCC2)C(=O)N[C@@H](CCCNC(=N)N)C(=O)N[C@@H](Cc2ccccc2)C(N)=O)sc2ccc(Cl)cc12 [Compound 36] | 8.4e-06 |  | 
N=C(N)NCCC[C@H](NC(=O)[C@H](CC1CCCCC1)NC(=O)c1n[nH]c(N)n1)C(=O)N[C@@H](Cc1ccccc1)C(N)=O [Compound 1] |  | 7.5e-07 | 
N=C(N)NCCCC(NC(=O)C(Cc1ccccc1)NC(=O)C(CCCNC(=N)N)NC(=O)C(CC1CCCCC1)NC(=O)c1n[nH]c(N)n1)C(N)=O (centres unmarked) [Compound 9] ({Triazole(1,2,4-3-CO,5-NH)}-[Cha]RFR-NH2; configuration not given here) |  |  | EC50 [2, 3]: 1.21e-06 M
N=C(N)NCCC[C@H](NC(=O)[C@H](CC1CCCCC1)NS(=O)(=O)c1ccc2ccccc2c1)C(=O)N[C@@H](Cc1ccccc1)C(N)=O [Compound 43] | 1.25e-05 |  | 
N=C(N)NCCC[C@H](NC(=O)[C@H](CC1CCCCC1)NC(=O)c1ccc2[nH]cnc2c1)C(=O)N[C@@H](Cc1ccccc1)C(N)=O [Compound 41] |  | 4e-06 | 
N=C(N)NCCCC(NC(=O)C(CC1CCCCC1)NC(=O)c1n[nH]c(NC(=O)C(F)=Cc2ccccc2)n1)C(=O)NC(Cc1ccccc1)C(N)=O (centres unmarked) [Compound 12] |  | 1.72e-06 | 
N=C(N)NCCCC(NC(=O)C(CC1CCCCC1)NC(=O)C1CCCN(C(=O)C(N)Cc2ccc(F)cc2)C1)C(=O)NC(Cc1ccccc1)C(N)=O (centres unmarked) [Compound 32] (H-[Phe(4-F)][ξNip][Cha]RF-NH2; configuration not given here) |  | 2.6e-05 | 
